Laboratory results from PMC6657673, “Synthesis of an α-phosphono-α,α-difluoroacetamide analogue of the diphosphoinositol pentakisphosphate 5-InsP7” (MedChemComm, 2019).

Target: T1, diphosphoinositol pentakisphosphate kinase 2 (PPIP5K2) (Homo sapiens, UniProt O43314)
T1 construct: kinase domain, residues 41–366 (crystal); residues 1–366 (kinase assay)
T1 sequence (O43314 1-366): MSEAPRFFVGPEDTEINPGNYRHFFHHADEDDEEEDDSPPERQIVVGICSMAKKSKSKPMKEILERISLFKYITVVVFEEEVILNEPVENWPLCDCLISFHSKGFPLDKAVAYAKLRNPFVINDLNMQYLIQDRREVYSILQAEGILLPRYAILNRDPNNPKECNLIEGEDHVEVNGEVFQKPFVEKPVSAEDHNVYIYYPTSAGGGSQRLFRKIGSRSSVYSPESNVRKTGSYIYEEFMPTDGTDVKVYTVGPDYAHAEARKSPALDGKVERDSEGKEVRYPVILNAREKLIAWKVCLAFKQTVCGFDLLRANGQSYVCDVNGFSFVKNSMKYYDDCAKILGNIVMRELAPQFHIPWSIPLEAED
Test: X-ray co-crystal structure (soak); also reverse-kinase inhibition assay (ATP generation from ADP and […]-[PP]2-InsP4)
Assay type: biochemical

Compound: O=C(N[C@@H]1[C@@H](OP(=O)(O)O)[C@H](OP(=O)(O)O)[C@H](OP(=O)(O)O)[C@H](OP(=O)(O)O)[C@H]1OP(=O)(O)O)C(F)(F)P(=O)(O)O [compound 1, 5-Deoxy-5-(phosphonodifluoroacetamido)-myo-inositol 1,2,3,4,6-pentakisphosphate]
- IC50: 375 nM
